Where two headings read alike, the source gives them in different places.

In data set [1] the test system is monoclonal mouse anti-AMX antibody A1463 (clone 1.BB.832). Put plainly: indirect competitive ELISA (calibration curves of β-lactams and hydrolysis products). Format: binding. Conditions: for IC50: read-out: IC50 (ELISA calibration curve); for reduction of LOD by hydrolysis: after hydrolysis. The method, then:
For the preparation of standards (calibrators), stock solutions of each compound with a mass concentration of approximately 1 g/L were prepared gravimetrically by weighing the respective compound and amount of solvent. Solvents for these stock solutions were ethanol for amoxicillin piperazine-2,5-dione and 3-(4-hydroxyphenyl)pyrazin-2-ol, or Milli-Q water for all other compounds. Standard solutions of each compound were prepared volumetrically by serial dilution of the respective stock solution in Milli-Q water. All standards and stock solutions were stored at 4 °C in the amber glass vials.
(§1) For hydrolysis, standards and samples were diluted in 0.1 M sodium hydroxide solution (1:1) the day before analysis in the assay, i.e., the day of coating (see below), and stored at 4 °C until the next day. Samples for reference analysis without hydrolysis were diluted in Milli-Q water (1:1) prior to analysis.
Each cavity of a 96-well microplate was coated with AMX-HSA (or alternatively AMX-BSA) in PBS (47.619 ng/L, 200 µL/well) and incubated for 18 h at RT with shaking at 750 rpm. Afterwards the plate was washed three times with washing buffer (1:60 dilution of washing buffer 60x in Milli-Q water) and the cavities were blocked with 0.1% (w/v) casein in PBS (200 µL/well) for 1 h at 750 rpm and RT. After repeated washing, standards/samples (100 µL/well) and primary antibody (dilution 1:20,000 in Tris for preliminary and cross-reactivity studies, in sample buffer pH 7.6 for sample analysis or in sample buffer pH 8.5 for reference analysis for degree of hydrolysis; 100 µL/well) were added and incubated for 1 h at 750 rpm and RT. Following another washing step, the plate was incubated with secondary antibody (95.238 ng/L, 200 µL/well) for 1 h at 750 rpm at RT. After final washing, cavities were filled with freshly prepared substrate solution (22 mL citrate buffer, 8.5 µL hydrogen peroxide solution, 550 µL TMB stock solution; 200 µL/well) and shaken for 10 min (preliminary and cross-reactivity studies) or 20 min (sample analysis, degree of hydrolysis) at 750 rpm for blue color development. […] Optical density was read at RT at a wavelength of 450 nm with reference at 620 nm. Data points were plotted in Origin® 2019 (OriginLab, Northampton, MA, USA), calibration curves were obtained by fitting a four-parameter logistic function to the measured data points and sample concentrations were determined by correlating concentration values of hydrolyzed standards with O.D. values of hydrolyzed and non-hydrolyzed samples. Each standard (8 per plate) and sample (24 per plate) was analyzed in triplicate with random distribution across the plate to reduce edge effects.

A short description of data set [2]: hydrolysis of AMX in standard solutions and water samples, followed by ELISA. It counts as physicochemical. The conditions noted are these: for reaction time after which no further shift in the calibration curve was observable (hydrolysis): 0.1 M NaOH. On the procedure: While developing and optimizing an indirect competitive ELISA for the determination of AMX, we observed a significant shift in the calibration curves obtained for differently aged standard solutions (calibrators) of AMX in water. […] This shift reached its end point after two months of storage at 4 °C and could be ascribed to hydrolysis of the parent drug by hydrolyzing standard solutions of AMX in 0.1 M NaOH, which yielded a similar calibration curve in the ELISA (see Figure 2).
In order to examine the degree of hydrolysis of AMX in these samples, a parallel analysis in the ELISA without pretreatment with 0.1 M NaOH was carried out and concentration values determined with and without hydrolysis were compared. […] Because of the antibody’s lower affinity towards unhydrolyzed AMX (higher IC50), higher O.D. values are found which correlate with lower concentration values in the calibration curve. This was the case for all of the tested mineral waters after 20 h. Contrarily, for tap water samples (P1–P4) the analysis without hydrolysis led to higher concentration values than the assay featuring hydrolysis, implying that hydrolysis of AMX had already occurred in these samples. […] The reason for that may lie in general properties of tap water containing particles or metal ions, e.g., Cu^2+, which can serve as catalysts for AMX hydrolysis. Furthermore, the storage of the water samples might have an effect as tap water for sample preparation was collected and stored in a glass bottle whereas mineral water samples were taken directly from plastic bottles. Anyhow, the influence of the pH value of the water can be ruled out since the values were within a range from 6.6 to 8.0 and no general trend was observable. The same holds true for ionic constituents (see Supplementary Table S1).
as §1

[3] abbreviates: non-hydrolyzed standard solutions (freshly prepared / before hydrolysis; pure compounds).
Setting [4] is: standards after alkaline hydrolysis (0.1 M NaOH, 24 h at 4 °C).

As to `CC1(C)S[C@@H]2[C@H](NC(=O)[C@H](N)c3ccccc3)C(=O)N2[C@H]1C(=O)O` [AMP, ampicillin], the results for the IC50 in data set [1] (setting [3]) and in data set [1] (setting [4]) were 1350 ± 130 nM and 36.2 ± 3.7 nM, respectively.
In the case of `CC1(C)S[C@@H]2[C@H](NC(=O)[C@H](N)c3ccc(O)cc3)C(=O)N2[C@H]1C(=O)O` [AMX, amoxicillin], the “reaction time after which no further shift in the calibration curve was observable (hydrolysis)” value in data set [2] (pH 12.5, 4 °C) is 18 h; in data set [2] (pH 12.5, RT), 3 h. Moreover, the “rate of hydrolysis in drinking water samples” value in data set [2] (spiked tap water vs bottled mineral water, after 20 h) was “much faster in tap water than in bottled mineral water”. In data set [2] (standard solutions in water, storage at 4 °C), the “storage time until shift of calibration curve reached its end point (hydrolysis)” value was “two”. Moreover, the IC50 in data set [1] (setting [3]) was 1470 ± 120 nM; in data set [1] (standard solutions aged for 2 months at 4 °C in water), 52.2 ± 4.4 nM; in data set [1] (setting [4]), 38.1 ± 3.6 nM.
Take `CC1(C)S[C@@H]2[C@H](NC(=O)C(C(=O)O)c3ccccc3)C(=O)N2[C@H]1C(=O)O` (some centres unmarked) [CRB, carbenicillin]: the figures for the IC50 in data set [1] (setting [3]) and in data set [1] (setting [4]) were 11 ± 0.4 nM and 3.8 ± 0.5 nM, respectively.
In the case of `CC1(C)SC(C(NC(=O)[C@H](N)c2ccc(O)cc2)C(=O)O)NC1C(=O)O` (some centres unmarked) [HP1, amoxicilloic acid], the “fold higher affinity of the antibody than to the parent drug AMX” value in data set [1] (HP1 vs AMX) is recorded as “approximately 200 fold”. For the same molecule, the IC50 in data set [1] (setting [3]) came to 7.48 ± 0.58 nM.
Regarding `CC1(C)SC(C2NC(=O)C(c3ccc(O)cc3)NC2=O)NC1C(=O)O` (centres unmarked) [HP2, amoxicillin piperazine-2,5-dione], the IC50 in data set [1] (setting [3]) was found to be 28700 nM.
In the case of `CC1(C)S[C@@H]2[C@H](NC(=O)Cc3ccccc3)C(=O)N2[C@H]1C(=O)O` [PenG, penicillin G], the “reduction of LOD by hydrolysis” value in data set [1] worked out at 85%. In addition, the IC50 in data set [1] (setting [3]) is 700 ± 70 nM; in data set [1] (setting [4]), 11.1 ± 1.7 nM.
As to `CC1(C)S[C@@H]2[C@H](NC(=O)COc3ccccc3)C(=O)N2[C@H]1C(=O)O` [PenV, penicillin V], the “reduction of LOD by hydrolysis” value in data set [1] is 85%. Also, the figures for the IC50 in data set [1] (setting [3]) and in data set [1] (setting [4]) were 702 ± 66 nM and 11.6 ± 2.5 nM, respectively.

For the origin of these results see PMC8001000, “Pitfalls in the Immunochemical Determination of β-Lactam Antibiotics in Water” (Antibiotics, 2021).
